Measured values published in patent US20150105324A1, “COMPOSITIONS AND METHODS FOR TREATING PTSD AND RELATED DISEASES” (INDIANA UNIVERSITY RESEARCH AND TECHNOLOGY CORPORATION, priority 2012, published 2015).

Key:
[1] = system: rats (conditioned fear, percent time freezing); experiment: Conditioned Fear Test; format: in vivo, rat; conditions: for acquisition of conditioned fear / fear extinction: compared to respective vehicle groups; for fear extinction: post conditioning treatment; for percent time freezing on test day 1 / percent time freezing during acquisition / percent time freezing during recall: rats; for percent time freezing on test day 1: after fear conditioning, FIGS. 1 and 2; for percent time freezing on test day 1 / percent time freezing during acquisition: vs vehicle; for percent time freezing during acquisition: acquisition of fear conditioning; for percent time freezing during recall: recall on day 3; for conditioned fear response 24 hours later (day 3 fear recall): treatment 5-60 min following the day 2 conditioning session
Description: Conditioned Fear Test. The conditioning chamber (Hamilton-Kinder, Paolo Alto, Calif.) is equipped to present light and tone cues along with a video camera set up to record behavior. The entire chamber is enclosed in a sound attenuated box. The animals went through 5 days of experimentation: Day 1 Habituation; Day 2 Conditioning; Day 3 Fear recall testing; Day 4 Extinction Training; and Day 5 Extinction Recall Test. Day 1 Habituation: Rats are exposed to the chambers for 10 min. Day 2 Conditioning: Rats are given five presentations of the tone CS (4 kHz, 80 dB, 20 sec) each co-terminating with a 0.8 mA foot shock lasting 0.5-s (US). The first CS-US pairing is presented 120 s into the session and the inter-trial interval (ITI) between CS-US presentations is 105 s on average (range 90-120). Conditioning sessions last about 11 minutes. Day 3 Fear recall tests: Twenty-four hours following the acquisition training, rats are given five 20-s CS presentations in the absence of the US. The first tone is presented 120 s into the session and the inter-trial interval (ITI) between CS-US presentations is 105 s on average (range 90-120). Percent time spent freezing is measured during each tone as an indication of fear recall. Recall test sessions last about 11 minutes. Extinction Training: Rats are exposed to 20 presentations of the CS in the absence of the US (mean ITI 180 s, range 120 to 240 s). Extinction Recall Test: 10 presentations of the CS only (mean ITI 180 s, range 120 to 240 s) are given 24 hrs after extinction.

[2] = system: cortical neurons stimulated with glutamate and glycine; experiment: Cell viability (LDH release) assay, glutamate/glycine exposed neurons; format: cell-based; conditions: FIG. 7; for glutamate receptor induced cell death: primary neuronal slices
Description: Cell viability assays. An LDH release assay was used for the measurement of cell viability. Cortical neurons were stimulated with glutamate and glycine in Mg^2+-free Locke's buffer. The neurons were washed with the buffer and incubated in cell-culture media for 12 h. Subsequently, LDH in the cell-culture media and total LDH after cell lysis were measured according to the manufacturer's instructions. LDH release was defined as ratio of LDH in the media to total LDH and normalized to the fold of control.

[3] = system: NMDA-induced increase of cGMP in primary cultured hippocampal neurons; experiment: NMDA-induced increase in cGMP in primary rat hippocampal neurons; format: cell-based
Description: (§1) NMDA-induced increase in cGMP in primary rat hippocampal neurons Neonatal rat hippocampal cultures were prepared according to Brewer (1997). Cells were cultured for 14-21 days before testing. NMDA ([…]) increased cGMP (measured by a cGMP-RIA kit from Perkin-Elmer) within 2-15 min of addition. The NMDA receptor antagonist, MK-801, and a NOS catalytic inhibitor, L-NAME, were used as positive controls.
as §1, with “neurons.” for “neurons”

[4] = system: rats (conditioned fear, percent time freezing); experiment: Conditioned Fear Test; format: in vivo, rat; conditions: extinction on day 2, vs vehicle
[5] = system: cGMP production induced by a NO donor; conditions: (Florio 2009); cited from earlier work
rats [6] = experiment: Open Field Test of Anxiety; format: in vivo, rat; conditions: i.p. 60 min prior to 5 min test; IC87201 4 mg/kg, ZL006 10 mg/kg; vs vehicle
Description: (§2) Open Field Test of Anxiety. Adult male rats are evaluated in a conventional open field test. Compounds described herein are evaluated compared to vehicle controls. Animals are observed for duration of time spent in regions of the open field (inner region versus outer region) and line crossings during a […] period following a systemic injection of vehicle or a test compound.
(§3) Results. Animals are systemically pre-treated by i.p. injections with two different agents that are known to disrupt the nNOS-PSD95 interaction, IC87201 (4 mg/kg) and ZL006 (10 mg/kg), 60 min prior to a 5 min open field test immediately followed by a 5 min social interaction test. […] (Inner time F(2,17)=0.4, p=0.678; Outer time F(2,17)=0.4, p=0.678; Line crossings F(2,17)=1.0, p=0.405; n=6/group).

rats [7] = experiment: Social Interaction test; format: in vivo, rat; conditions: i.p. 60 min prior; IC87201 4 mg/kg, ZL006 10 mg/kg; vs vehicle
Description: as §2, with “Social Interaction.” for “Open Field Test of Anxiety.”, “social interaction assay.” for “open field test.”, “of” for “of the”, “field test” for “field”
as §3

[8] = molecular target: PSD95-cypin protein-protein interaction (Homo sapiens, UniProt P78352); conditions: plate binding assay (Florio 2009); cited from earlier work
nNOS-PSD95 complex = experiment: Co-immunoprecipitation of nNOS-PSD95 complex in neuronal cultures; format: cell-based
Description: (§4) Co-immunoprecipitation. Cultured neurons, organotypic hippocampal slice cultures (OHSCs) or the cortices of mice were lysed and centrifuged. The supernatant was preincubated with protein G-Sepharose beads (Sigma-Aldrich) and then centrifuged to obtain the target supernatant. The antibodyconjugated protein G-Sepharose beads were incubated with the target supernatant, centrifuged, washed and heated the beads to elute bound proteins and analyzed proteins by immunoblotting.
(§5) Coimmunoprecipitation. Neurons were washed in PBS twice, and then lysed in 400 μl buffer A (50 mM Tris-HCl [pH 7.4], 150 mM NaCl, 1 mM EDTA-Na, 1% NP-40, 0.02% sodium azide, 0.1% SDS, 0.5% sodium deoxycholate, 1% PMSF, 1‰ aprotinin, 1‰ leupeptin, and 0.5‰ pepstatin A). The lysates were centrifugated at 12,000×g for 15 min at 4° C. […] Proteins were analyzed by immunoblotting.
(§6) Samples were immunoprecipitated and analyzed by western blotting with the indicated antibodies (IP for nNOS, and WB for PSD-95), and analyzed for (a) nNOS-PSD-95 complex amounts in the cortex of mice subjected to 90 min MCAO and 30 min reperfusion (n=3), as shown in FIG. 5A in wild type mice after MCAO, and (b) nNOS-PSD-95 complex amounts in neurons exposed to 50 μM glutamate with 10 μM glycine for 30 min (n=3). […]

[9] = 1.5 mg/kg i.v., 15 and 60 min after dosing; FIG. 8 (Zhou 2010); cited from earlier work
[10] = system: NOS (total NOS, nNOS) in homogenates from the cortex of mice; experiment: NOS activity assay; format: biochemical, mouse; conditions: 10 μM, 30 min
PSD95-SynGAP interaction = molecular target: T1, PSD95-SynGAP interaction (Mus musculus, UniProt Q62108); experiment: Co-immunoprecipitation of PSD95-SynGAP in ischemic cortexes; format: in vivo; conditions: 1.5 mg kg-1 i.v. 15 min before MCAO
T1 construct: from tissue; host or cells: mouse ischemic cortex
Description: (§7) Coimmunoprecipitation. Neurons were washed in PBS twice, and then lysed in 400 μl buffer A (50 mM Tris-HCl [pH 7.4], 150 mM NaCl, 1 mM EDTA-Na, 1% NP-40, 0.02% sodium azide, 0.1% SDS, 0.5% sodium deoxycholate, 1% PMSF, 1‰ aprotinin, 1‰ leupeptin, and 0.5‰ pepstatin A). The lysates were centrifugated at 12,000×g for 15 min at 4° C. The OHSCs or cortex of mice was homogenized in ice-cold lysis buffer A. After lysis for 15 min, samples were centrifuged at 20,000×g for 15 min. The supernatant were preincubated for 1 h at 4° C. with 0.025 ml of protein G-sepharose beads (Sigma-Aldrich) and then centrifuged to remove proteins that adhered nonspecifically to the beads and obtain the target supernatant for following IP experiment. Protein G Sepharose beads were incubated with antibodies (rabbit antibody to nNOS, 1:100, Affinity BoReagents; rabbit antibody to PSD95, 1:100, Cell Signaling Technology; and rabbit antibody to NR2B antibody, 1:200, Chemicon) for 3-4 h. The antibodies-conjugated protein G-sepharose beads and the target supernatant were added for incubation overnight. Immune complexes were isolated by centrifugation, washed 4 times with 0.05 M HEPES buffer, pH 7.1, containing 0.15% Triton X-100, 0.15 M NaCl, and 0.1×10^−3 M sodium orthovanadate, and bound proteins were eluted by heating at 100° C. in loading buffer. Proteins were analyzed by immunoblotting. […]

[11] = system: NMDARs EPSCs of CA1 pyramidal neurons; experiment: Electrophysiological recordings in hippocampal slices; format: cell-based; conditions: 1.0 μM, rat hippocampal slices, low-Mg2+ ACSF
nNOS-CAPON interaction = molecular target: T2, nNOS-CAPON interaction (Mus musculus, UniProt Q9Z0J4); experiment: Co-immunoprecipitation of nNOS-CAPON in ischemic cortexes; format: in vivo; conditions: 1.5 mg kg-1 i.v. 15 min before MCAO
T2 construct: from tissue; host or cells: mouse ischemic cortex
Description: as §7

nNOS-PSD95 interaction = molecular target: T3, nNOS-PSD95 interaction (Mus musculus, UniProt Q9Z0J4); experiment: Co-immunoprecipitation of nNOS-PSD95 complex in cortex of mice (MCAO/reperfusion); format: in vivo
T3 construct: from tissue; host or cells: mouse cortex
Description: as §4, §5, §6

T3 sequence (Q9Z0J4 whole entry, the tested form may be a part): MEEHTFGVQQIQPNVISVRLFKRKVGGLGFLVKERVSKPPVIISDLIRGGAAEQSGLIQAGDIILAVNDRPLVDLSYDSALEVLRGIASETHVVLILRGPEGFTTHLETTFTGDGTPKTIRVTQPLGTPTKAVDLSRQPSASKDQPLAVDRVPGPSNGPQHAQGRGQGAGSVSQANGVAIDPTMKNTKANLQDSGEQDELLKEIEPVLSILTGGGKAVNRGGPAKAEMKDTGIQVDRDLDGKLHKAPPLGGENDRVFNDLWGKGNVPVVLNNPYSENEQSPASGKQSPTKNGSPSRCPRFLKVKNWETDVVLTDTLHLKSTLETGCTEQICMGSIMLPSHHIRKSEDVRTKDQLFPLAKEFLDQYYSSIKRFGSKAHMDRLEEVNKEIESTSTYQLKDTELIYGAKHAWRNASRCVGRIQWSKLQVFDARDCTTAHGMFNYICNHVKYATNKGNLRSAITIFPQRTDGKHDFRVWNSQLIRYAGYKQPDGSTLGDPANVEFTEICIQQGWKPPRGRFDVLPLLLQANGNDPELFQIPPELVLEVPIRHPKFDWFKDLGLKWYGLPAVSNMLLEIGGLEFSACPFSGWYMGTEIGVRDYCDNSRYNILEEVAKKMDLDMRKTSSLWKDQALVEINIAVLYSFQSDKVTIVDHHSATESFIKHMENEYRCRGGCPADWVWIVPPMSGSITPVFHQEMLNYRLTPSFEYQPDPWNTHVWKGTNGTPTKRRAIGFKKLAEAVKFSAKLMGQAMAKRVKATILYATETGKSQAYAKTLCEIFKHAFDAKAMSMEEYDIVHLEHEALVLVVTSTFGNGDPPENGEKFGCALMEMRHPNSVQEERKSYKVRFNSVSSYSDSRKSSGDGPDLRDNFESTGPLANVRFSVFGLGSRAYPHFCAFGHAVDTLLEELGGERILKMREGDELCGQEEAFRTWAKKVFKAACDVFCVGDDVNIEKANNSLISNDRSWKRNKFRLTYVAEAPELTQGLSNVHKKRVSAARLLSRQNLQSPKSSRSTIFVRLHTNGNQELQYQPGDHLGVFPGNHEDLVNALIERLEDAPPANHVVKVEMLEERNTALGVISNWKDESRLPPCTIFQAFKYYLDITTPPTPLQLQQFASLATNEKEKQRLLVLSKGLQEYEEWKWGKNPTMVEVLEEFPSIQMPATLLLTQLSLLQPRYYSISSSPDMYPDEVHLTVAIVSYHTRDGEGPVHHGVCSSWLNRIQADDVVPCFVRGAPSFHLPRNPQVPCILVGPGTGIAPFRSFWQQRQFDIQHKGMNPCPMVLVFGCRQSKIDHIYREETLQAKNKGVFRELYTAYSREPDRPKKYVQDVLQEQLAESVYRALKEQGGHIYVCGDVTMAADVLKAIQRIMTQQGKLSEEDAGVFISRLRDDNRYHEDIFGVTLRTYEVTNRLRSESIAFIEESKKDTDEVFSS
T1 sequence (Q62108 whole entry): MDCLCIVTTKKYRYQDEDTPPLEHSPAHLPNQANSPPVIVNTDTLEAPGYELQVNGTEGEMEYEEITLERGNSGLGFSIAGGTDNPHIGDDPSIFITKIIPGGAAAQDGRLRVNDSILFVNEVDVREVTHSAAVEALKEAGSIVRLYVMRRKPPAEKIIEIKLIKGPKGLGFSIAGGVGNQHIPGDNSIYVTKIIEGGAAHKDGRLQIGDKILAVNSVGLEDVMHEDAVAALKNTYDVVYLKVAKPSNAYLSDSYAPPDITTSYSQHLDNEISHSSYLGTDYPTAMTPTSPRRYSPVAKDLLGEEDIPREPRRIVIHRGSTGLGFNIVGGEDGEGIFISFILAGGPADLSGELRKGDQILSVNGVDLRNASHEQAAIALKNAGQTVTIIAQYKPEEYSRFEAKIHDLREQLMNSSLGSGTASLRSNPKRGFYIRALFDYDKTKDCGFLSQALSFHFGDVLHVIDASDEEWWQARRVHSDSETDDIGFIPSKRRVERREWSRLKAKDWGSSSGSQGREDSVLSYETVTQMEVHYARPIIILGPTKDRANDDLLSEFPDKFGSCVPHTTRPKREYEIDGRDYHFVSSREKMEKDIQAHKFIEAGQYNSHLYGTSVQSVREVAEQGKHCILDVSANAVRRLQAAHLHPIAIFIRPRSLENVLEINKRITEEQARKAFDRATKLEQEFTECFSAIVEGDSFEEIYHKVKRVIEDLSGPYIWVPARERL
Sequence of PSD95-cypin protein-protein interaction (P78352 whole entry): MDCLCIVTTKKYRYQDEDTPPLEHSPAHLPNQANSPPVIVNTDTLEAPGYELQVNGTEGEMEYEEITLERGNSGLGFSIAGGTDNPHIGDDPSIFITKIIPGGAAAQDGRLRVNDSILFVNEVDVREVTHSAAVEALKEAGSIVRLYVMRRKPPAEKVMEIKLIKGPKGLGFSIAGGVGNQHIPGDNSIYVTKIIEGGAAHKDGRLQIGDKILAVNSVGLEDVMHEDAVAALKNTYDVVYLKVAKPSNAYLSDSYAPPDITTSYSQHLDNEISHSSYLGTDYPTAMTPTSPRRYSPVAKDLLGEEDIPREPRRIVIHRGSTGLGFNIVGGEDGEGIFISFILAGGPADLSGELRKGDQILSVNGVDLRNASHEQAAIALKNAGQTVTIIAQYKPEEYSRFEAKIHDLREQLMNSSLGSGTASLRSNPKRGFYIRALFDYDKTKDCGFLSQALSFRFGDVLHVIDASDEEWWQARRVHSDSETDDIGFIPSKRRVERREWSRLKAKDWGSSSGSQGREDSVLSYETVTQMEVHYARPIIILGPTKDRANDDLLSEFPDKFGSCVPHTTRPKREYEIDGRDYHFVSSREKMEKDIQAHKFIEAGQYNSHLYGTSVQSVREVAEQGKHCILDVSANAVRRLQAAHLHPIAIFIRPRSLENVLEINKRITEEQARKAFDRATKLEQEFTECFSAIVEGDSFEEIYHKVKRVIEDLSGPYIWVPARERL
T2 sequence (Q9Z0J4 whole entry): as the sequence (Q9Z0J4 whole entry, the tested form may be a part) above

Row | duration of time spent in regions of the open field (inner region versus outer region) (rats [6]) | number of line crossings (rats [6]) | SMILES | acquisition of conditioned fear [1] | fear extinction [1] | percent time freezing on test day 1 [1] | percent time freezing during acquisition [1] | percent time freezing during recall ([1]; data not shown) | conditioned fear response 24 hours later (day 3 fear recall) [1] | glutamate receptor induced cell death [2] | percent time freezing during extinction [4] | social interaction duration (rats [7]) | other results
1 | not observed a significant difference | not observed a significant difference | Oc1c(Cl)cc(Cl)cc1CNc1ccc2[nH]nnc2c1 [IC87201, 2-((1H-benzo[d][1,2,3]triazol-5-ylamino)methyl)-4,6-dichlorophenol] | identical acquisition of conditioned fear | normal patterns of fear extinction | reduced the percent time freezing on test day 1 | Neither IC8701 nor ZL006 altered the percent time freezing | Neither IC8701 nor ZL006 altered the percent time freezing | significant attenuation of conditioned fear response | disrupt nNOS downstream signaling | Neither IC8701 nor ZL006 altered the percent time freezing | improvement in social interaction duration | attenuation of NMDA-induced increases in cGMP [3]: dose-dependently attenuated NMDA-induced increases in cGMP; IC50 ([3]; Rattus norvegicus, Hippocampal neuron, n=14-20, FIG. 6, read-out: IC50, attenuation of NMDA-induced increase of cGMP): 2700 nM; effect on cGMP production induced by a NO donor [5]: no effect; disruption of PSD95-cypin protein-protein interaction [8]: does not disrupt
2 | not observed a significant difference | not observed a significant difference | O=C(O)c1ccc(NCc2cc(Cl)cc(Cl)c2O)cc1O [ZL006] | identical acquisition of conditioned fear | normal patterns of fear extinction | reduced the percent time freezing on test day 1 | Neither IC8701 nor ZL006 altered the percent time freezing | Neither IC8701 nor ZL006 altered the percent time freezing | significant attenuation of conditioned fear response | disrupt nNOS downstream signaling | Neither IC8701 nor ZL006 altered the percent time freezing | not observed a significant difference | co-immunoprecipitation of nNOS-PSD95 complex (nNOS-PSD95 complex): inhibits the in co-immunoprecipitation of nNOS-PSD95 complex; freezing, extinction ([1]; 10 mg/kg i.p., after the acquisition day, 1 hour prior to the consolidation day, FIG. 3): improved extinction; freezing, recall ([1]; 10 mg/kg i.p., after the acquisition day, 1 hour prior to the consolidation day, data not shown): improved recall; NMDAR-dependent excitotoxicity (lactate dehydrogenase release) and cerebral ischemia ([2]; cultured neurons exposed to 50 μM glutamate with 10 μM glycine for 30 min): prevents NMDAR-dependent excitotoxicity and cerebral ischemia; penetration in the CNS (concentrations in serum, CSF and brain tissue) [9]: significant penetration in the CNS; NOS activity / NOS catalytic activity [10]: does not inhibit NOS activity; co-immunoprecipitation of PSD95-SynGAP interaction (PSD95-SynGAP interaction): does not inhibit; NMDARs EPSCs [11]: does not inhibit NMDARs EPSCs; co-immunoprecipitation of nNOS-Capon interaction (nNOS-CAPON interaction): does not inhibit; nNOS-PSD95 interaction in the non-ischemic cortex (nNOS-PSD95 interaction; non-ischemic cortex, n=3, ZL006 vs vehicle): did not show a significant effects; ischemic induced increase in nNOS-PSD95 interaction (nNOS-PSD95 interaction; wild type mice, MCAO and reperfusion): blocks the ischemic induced increase in nNOS-PSD95 interaction
